Test results from the NIST ThermoML archive (doi:10.1021/je501054c).
Where “and” joins values, the source holds several entries; their conditions need not be identical. Equal values may be shown once.

Legend:
[1] = mn = molality of the nth substance listed, in mol/kg; conditions: 100 kPa, Liquid; for viscosity: Capillary tube (Ostwald / Ubbelohde) method; for mass density: Vibrating tube method
[2] = 100 kPa, Liquid; for mass density: Vibrating tube method

CCCCCCn1cc[n+](C)c1.[Cl-] [1-hexyl-3-methylimidazolium chloride] + CC#N
[1]
Conditions	mass density, 298.15 K [kg/m3]	mass density, 303.15 K [kg/m3]	mass density, 308.15 K [kg/m3]	mass density, 313.15 K [kg/m3]	viscosity, 298.15 K [mPa·s]
m1 = 0.0205	777.74	772.53	764.33	756.52	–
m1 = 0.022	–	–	–	–	0.3485
m1 = 0.041	778.81	773.62	765.43	757.67	–
m1 = 0.0461	–	–	–	–	0.3524
m1 = 0.06	779.78	774.61	766.44	758.72	–
m1 = 0.0622	–	–	–	–	0.3551
m1 = 0.0809	780.84	775.69	767.53	759.86	–
m1 = 0.0814	–	–	–	–	0.3589
m1 = 0.1002	781.8	776.66	768.53	760.89	–
m1 = 0.1057	–	–	–	–	0.3631
m1 = 0.1197	782.75	777.64	769.5	761.94	–
m1 = 0.123	–	–	–	–	0.367
m1 = 0.1374	783.62	778.51	770.4	762.83	–
m1 = 0.1423	–	–	–	–	0.3696
m1 = 0.1544	784.44	779.33	771.23	763.72	–
m1 = 0.1606	–	–	–	–	0.3741
m1 = 0.1788	785.56	780.48	772.4	764.93	–
m1 = 0.181	–	–	–	–	0.3776
m1 = 0.1969	786.4	781.33	773.26	765.84	–
m1 = 0.2045	–	–	–	–	0.3813

CCC[n+]1ccn(C)c1.[Br-] [1-methyl-3-propylimidazolium bromide] + CC#N
[1]
Conditions	mass density, 298.15 K [kg/m3]	mass density, 303.15 K [kg/m3]	mass density, 308.15 K [kg/m3]	mass density, 313.15 K [kg/m3]	viscosity, 298.15 K [mPa·s]
m1 = 0.0248	778.67	773.46	763.49	757.41	–
m1 = 0.0251	–	–	–	–	0.3488
m1 = 0.0422	–	–	–	–	0.3525
m1 = 0.0423	780.09	774.88	764.92	758.84	–
m1 = 0.0636	781.79	776.59	766.63	760.57	–
m1 = 0.0644	–	–	–	–	0.3573
m1 = 0.081	783.18	777.98	768.02	761.96	–
m1 = 0.0816	–	–	–	–	0.3607
m1 = 0.1036	784.95	779.74	769.8	763.74	–
m1 = 0.1051	–	–	–	–	0.3633
m1 = 0.123	786.44	781.24	771.31	765.27	–
m1 = 0.1245	–	–	–	–	0.3675
m1 = 0.1437	788.02	782.86	772.93	766.87	–
m1 = 0.1461	–	–	–	–	0.3724
m1 = 0.1636	789.52	784.35	774.44	768.39	–
m1 = 0.1667	–	–	–	–	0.3771
m1 = 0.1835	791.02	785.84	775.93	769.89	–
m1 = 0.1873	–	–	–	–	0.38
m1 = 0.2042	792.57	787.39	777.47	771.44	–
m1 = 0.2082	–	–	–	–	0.3844

CCCCCn1cc[n+](C)c1.[Br-] [1-pentyl-3-methylimidazolium bromide] + CC#N
[1]
Conditions	mass density, 298.15 K [kg/m3]	mass density, 303.15 K [kg/m3]	mass density, 308.15 K [kg/m3]	mass density, 313.15 K [kg/m3]	viscosity, 298.15 K [mPa·s]
m1 = 0.03	779.11	770.63	762.52	755.09	–
m1 = 0.0301	–	–	–	–	0.3532
m1 = 0.0509	780.82	772.34	764.26	756.83	–
m1 = 0.0511	–	–	–	–	0.3605
m1 = 0.0721	782.52	774.06	765.99	758.59	–
m1 = 0.0726	–	–	–	–	0.366
m1 = 0.1016	784.87	776.42	768.38	760.99	–
m1 = 0.1026	–	–	–	–	0.3724
m1 = 0.123	786.55	778.11	770.11	762.71	–
m1 = 0.1245	–	–	–	–	0.3782
m1 = 0.1434	788.15	779.71	771.7	764.33	–
m1 = 0.1455	–	–	–	–	0.3814
m1 = 0.1628	789.62	781.22	773.22	765.86	–
m1 = 0.1655	–	–	–	–	0.3873
m1 = 0.1944	792	783.62	775.67	768.32	–
m1 = 0.1983	–	–	–	–	0.3928
m1 = 0.211	793.26	784.87	776.92	769.58	–
m1 = 0.2155	–	–	–	–	0.3975
m1 = 0.2313	794.76	786.39	778.44	771.12	–
m1 = 0.2367	–	–	–	–	0.4016

CCCCCCn1cc[n+](C)c1.[Br-] [3-hexyl-1-methyl-1H-imidazolium bromide] + CC#N
[1]
Conditions	mass density, 298.15 K [kg/m3]	mass density, 303.15 K [kg/m3]	mass density, 308.15 K [kg/m3]	mass density, 313.15 K [kg/m3]	viscosity, 298.15 K [mPa·s]
m1 = 0.0208	778.37	773.15	763.14	754.27	–
m1 = 0.0209	–	–	–	–	0.353
m1 = 0.0449	780.33	775.12	765.12	756.27	–
m1 = 0.0451	–	–	–	–	0.3625
m1 = 0.0648	781.93	776.74	766.75	757.91	–
m1 = 0.0653	–	–	–	–	0.367
m1 = 0.0817	783.29	778.1	768.12	759.29	–
m1 = 0.0824	–	–	–	–	0.372
m1 = 0.1001	784.72	779.55	769.58	760.76	–
m1 = 0.1011	–	–	–	–	0.3774
m1 = 0.124	786.57	781.42	771.48	762.66	–
m1 = 0.1255	–	–	–	–	0.3842
m1 = 0.1424	788	782.85	772.92	764.1	–
m1 = 0.1445	–	–	–	–	0.3882
m1 = 0.1649	789.72	784.57	774.66	765.86	–
m1 = 0.1676	–	–	–	–	0.3937
m1 = 0.1832	791.1	785.97	776.06	767.28	–
m1 = 0.1866	–	–	–	–	0.3982
m1 = 0.2011	792.44	787.33	777.41	768.63	–
m1 = 0.2052	–	–	–	–	0.4022

CC#N [acetonitrile]
Conditions	viscosity [mPa·s]
[2], 298.15 K, Capillary tube (Ostwald / Ubbelohde) method	0.343

[2]
Conditions	mass density
298.15 K	776.65 kg/m3
303.15 K	771.43 kg/m3 and 768.14 kg/m3
308.15 K	761.45 kg/m3 [middle of 4 runs]
313.15 K	755.34 kg/m3 [middle of 4 runs]
